Source: US20230192638A1, “POLYPHENOLS DERIVATIVES” (Epirium Bio Inc., priority 2021, published 2023)
Where two headings read alike, the source gives them in different places.

Test system: PGC-1α
Assay: Single point PGC-1α assay (in-cell ELISA in differentiated C2C12 myotubes)
Assay type: cell-based
Conditions: Mus musculus, each compound tested at 0.01 nM, DMSO control as 100 %
Protocol: Culture conditions: DMEM containing 25 mM glucose with 10 % FBS supplementation; grown at 37° C. and 5 % CO2.
Assay Conditions: C2C12 cells were cultured in DMEM supplemented in 10 % FBS up to 80 % confluence. The cells were further trypsinized and seeded into a 96 well plate at a density of 5000 cells/well (well volume – 100 µL) (Day 0). Following attachment, the cells were allowed to reach 80-90% confluence in the plate (typically 48 hours post seeding) and further differentiated using DMEM + 2 % Horse Serum (200 µL/well). The media was changed every day or at least every alternate day for 5 days to allow myoblasts to differentiate into myotubes. On day 7 (post seeding), the cells were treated with standards and test compounds for PGC-1α assay.
PGC-1α assay: For the detection of PGC-1α, the cells were incubated with 0.5 µg/ml primary antibody (Merck, WH0010891M3) in PBS-T containing 5 % BSA at 4° C. overnight. The cells were then washed three times with PBS-T for 5 minutes and incubated with 1:1000 dilution secondary antibody (Anti- rabbit IgG, HRP-linked Antibody, Cell Signaling) in PBS-T with 1 % BSA for 1 hour at RT. Cells were washed three times with PBS-T for 5 minutes The cells were incubated with 100 µl TMB substrate solution for 30 minutes and the reaction was stopped with 100 µl of 2N H2SO4. Then the plate was read at 450 nm using ELISA plate reader and absorbance recorded. % activity was calculated using DMSO control as 100 %. (For plate optical density calculations, a background correction was taken at 540 nm). Each compound was tested at a concentration of 0.01 nM.

[1] = average, count 1, read-out: Single point PGC1-Alpha Assay: Average Activity (%)
[2] = read-out: Single point PGC1-Alpha Assay: Activity (%)

Row | SMILES | activity at 10 pM [1] [%] | activity at 10 pM [2] [%]
1 | Cc1cc(O)cc(C2Oc3cc(O)cc(O)c3CC2O)c1 (stereo not drawn) | 109 | 109
2 | Cc1cc(O)cc([C@H]2Oc3cc(O)cc(O)c3C[C@H]2O)c1 | 103 | 103
3 | Cc1cc(O)cc([C@@H]2Oc3cc(O)cc(O)c3C[C@@H]2O)c1 | 114 | 114
4 | Oc1cc(O)c2c(c1)O[C@@H](c1ccc(F)c(O)c1)[C@@H](O)C2 | 104 | 104
5 | COc1cc([C@@H]2Oc3cc(O)cc(O)c3C[C@@H]2O)ccc1O | 124 | 124
6 | Oc1cc(F)cc([C@@H]2Oc3cc(O)cc(O)c3C[C@@H]2O)c1 | 117 | 117
